In paper PMC8383264, “Structural Characterization of the Reaction and Substrate Specificity Mechanisms of Pathogenic Fungal Acetyl-CoA Synthetases” (ACS Chemical Biology, 2021):

Columns and labels:
[1] = biological target: CnAcs1 (Cryptococcus neoformans, UniProt J9VFT1); assay: Coupled continuous pyrophosphate detection assay (EnzChek) of ACS activity
[2] = biological target: T1, S. cerevisiae Acs1 (Saccharomyces cerevisiae, UniProt Q01574); assay: as above; conditions: 37 °C
T1 sequence (Q01574 1-713): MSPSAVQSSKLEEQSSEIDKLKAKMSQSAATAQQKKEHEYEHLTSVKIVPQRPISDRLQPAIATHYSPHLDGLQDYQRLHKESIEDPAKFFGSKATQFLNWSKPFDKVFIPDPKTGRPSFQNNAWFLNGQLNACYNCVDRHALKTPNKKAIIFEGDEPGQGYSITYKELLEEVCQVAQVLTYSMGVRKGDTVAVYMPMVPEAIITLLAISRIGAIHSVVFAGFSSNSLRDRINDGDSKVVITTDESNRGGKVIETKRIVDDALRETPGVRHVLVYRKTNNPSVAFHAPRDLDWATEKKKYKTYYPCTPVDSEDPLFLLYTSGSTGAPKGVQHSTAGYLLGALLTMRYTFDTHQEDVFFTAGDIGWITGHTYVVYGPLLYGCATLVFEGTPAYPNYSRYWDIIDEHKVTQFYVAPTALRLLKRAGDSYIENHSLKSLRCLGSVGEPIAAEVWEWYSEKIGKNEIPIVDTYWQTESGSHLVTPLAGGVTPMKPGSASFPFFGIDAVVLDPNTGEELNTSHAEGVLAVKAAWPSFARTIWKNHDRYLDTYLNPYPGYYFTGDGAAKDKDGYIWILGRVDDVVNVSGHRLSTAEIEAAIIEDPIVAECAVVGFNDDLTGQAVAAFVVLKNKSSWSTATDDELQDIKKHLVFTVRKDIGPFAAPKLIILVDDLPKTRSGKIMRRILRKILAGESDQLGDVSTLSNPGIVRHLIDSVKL

[3] = biological target: C. posadasii Acs1 (Coccidioides posadasii, UniProt C5PGB4); conditions: 37 °C
C. posadasii Acs1, sequence (C5PGB4 2-691 limits assumed): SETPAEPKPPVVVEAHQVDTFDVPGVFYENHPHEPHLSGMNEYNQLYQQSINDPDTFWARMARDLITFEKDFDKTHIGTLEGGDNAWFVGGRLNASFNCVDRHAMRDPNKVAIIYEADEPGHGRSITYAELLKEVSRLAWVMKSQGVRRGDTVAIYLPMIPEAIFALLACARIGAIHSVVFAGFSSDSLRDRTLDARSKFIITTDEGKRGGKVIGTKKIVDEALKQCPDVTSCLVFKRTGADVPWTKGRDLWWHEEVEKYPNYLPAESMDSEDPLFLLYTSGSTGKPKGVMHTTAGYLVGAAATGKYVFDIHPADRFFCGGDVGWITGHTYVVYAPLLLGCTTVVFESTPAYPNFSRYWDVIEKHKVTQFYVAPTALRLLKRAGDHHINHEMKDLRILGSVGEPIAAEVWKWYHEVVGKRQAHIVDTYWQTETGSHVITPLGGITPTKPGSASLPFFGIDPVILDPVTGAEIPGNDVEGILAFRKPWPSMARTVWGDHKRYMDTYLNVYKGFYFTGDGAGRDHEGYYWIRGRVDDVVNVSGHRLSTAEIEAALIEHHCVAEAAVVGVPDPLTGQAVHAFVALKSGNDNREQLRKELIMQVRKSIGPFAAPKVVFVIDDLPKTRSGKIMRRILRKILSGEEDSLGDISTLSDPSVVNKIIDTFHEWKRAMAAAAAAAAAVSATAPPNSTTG

[4] = biological target: C. albicans Acs1 (Candida albicans, UniProt Q8NJN3); assay: Coupled continuous pyrophosphate detection assay (EnzChek) of ACS activity; conditions: 37 °C
C. albicans Acs1, sequence (Q8NJN3 2-671 limits assumed): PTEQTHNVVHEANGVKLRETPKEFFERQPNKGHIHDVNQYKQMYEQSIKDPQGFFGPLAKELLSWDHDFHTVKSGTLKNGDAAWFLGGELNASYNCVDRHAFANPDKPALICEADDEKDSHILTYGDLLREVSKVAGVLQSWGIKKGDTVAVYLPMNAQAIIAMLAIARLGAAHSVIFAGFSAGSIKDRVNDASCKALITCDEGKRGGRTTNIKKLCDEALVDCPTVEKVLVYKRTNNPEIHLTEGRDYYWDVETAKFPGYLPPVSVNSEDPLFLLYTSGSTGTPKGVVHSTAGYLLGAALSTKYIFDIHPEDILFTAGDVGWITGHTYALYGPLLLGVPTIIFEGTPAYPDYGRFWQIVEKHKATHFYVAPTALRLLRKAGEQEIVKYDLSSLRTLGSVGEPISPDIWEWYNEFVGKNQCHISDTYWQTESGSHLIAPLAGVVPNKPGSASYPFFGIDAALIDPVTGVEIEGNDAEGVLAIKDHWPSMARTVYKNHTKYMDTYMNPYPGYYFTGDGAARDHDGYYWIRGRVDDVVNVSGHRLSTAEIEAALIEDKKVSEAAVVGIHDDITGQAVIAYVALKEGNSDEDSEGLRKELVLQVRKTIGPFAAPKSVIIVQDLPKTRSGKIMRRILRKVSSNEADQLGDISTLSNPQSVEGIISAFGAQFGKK

[5] = biological target: T2, A. fumigatus Acs1 (Aspergillus fumigatus, UniProt Q4WQ02); assay: as above; conditions: substrate Km; other substrates in excess; 37 °C; ±S.E.M.
T2 sequence (Q4WQ02 2-670): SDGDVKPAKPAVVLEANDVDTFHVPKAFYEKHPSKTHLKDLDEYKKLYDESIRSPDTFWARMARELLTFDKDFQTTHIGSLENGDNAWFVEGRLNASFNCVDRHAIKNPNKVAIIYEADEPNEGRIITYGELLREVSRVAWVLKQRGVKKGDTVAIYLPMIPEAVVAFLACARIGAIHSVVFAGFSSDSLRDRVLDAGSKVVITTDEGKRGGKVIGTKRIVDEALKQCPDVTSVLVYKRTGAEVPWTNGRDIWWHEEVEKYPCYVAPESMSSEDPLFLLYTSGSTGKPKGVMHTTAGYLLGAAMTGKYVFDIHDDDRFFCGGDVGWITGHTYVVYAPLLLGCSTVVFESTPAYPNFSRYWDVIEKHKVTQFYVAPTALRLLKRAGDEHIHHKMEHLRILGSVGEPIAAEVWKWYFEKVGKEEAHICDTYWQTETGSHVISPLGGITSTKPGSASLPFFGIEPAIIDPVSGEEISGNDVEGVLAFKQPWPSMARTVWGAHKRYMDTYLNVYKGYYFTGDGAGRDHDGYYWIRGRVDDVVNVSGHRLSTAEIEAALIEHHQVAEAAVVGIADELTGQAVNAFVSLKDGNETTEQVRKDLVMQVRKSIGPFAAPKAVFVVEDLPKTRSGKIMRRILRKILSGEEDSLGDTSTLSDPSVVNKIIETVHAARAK

[6] = biological target: C. immitis Acs1 (Coccidioides immitis, UniProt J3KJC6); conditions: 37 °C
C. immitis Acs1, sequence (J3KJC6 2-691 limits assumed): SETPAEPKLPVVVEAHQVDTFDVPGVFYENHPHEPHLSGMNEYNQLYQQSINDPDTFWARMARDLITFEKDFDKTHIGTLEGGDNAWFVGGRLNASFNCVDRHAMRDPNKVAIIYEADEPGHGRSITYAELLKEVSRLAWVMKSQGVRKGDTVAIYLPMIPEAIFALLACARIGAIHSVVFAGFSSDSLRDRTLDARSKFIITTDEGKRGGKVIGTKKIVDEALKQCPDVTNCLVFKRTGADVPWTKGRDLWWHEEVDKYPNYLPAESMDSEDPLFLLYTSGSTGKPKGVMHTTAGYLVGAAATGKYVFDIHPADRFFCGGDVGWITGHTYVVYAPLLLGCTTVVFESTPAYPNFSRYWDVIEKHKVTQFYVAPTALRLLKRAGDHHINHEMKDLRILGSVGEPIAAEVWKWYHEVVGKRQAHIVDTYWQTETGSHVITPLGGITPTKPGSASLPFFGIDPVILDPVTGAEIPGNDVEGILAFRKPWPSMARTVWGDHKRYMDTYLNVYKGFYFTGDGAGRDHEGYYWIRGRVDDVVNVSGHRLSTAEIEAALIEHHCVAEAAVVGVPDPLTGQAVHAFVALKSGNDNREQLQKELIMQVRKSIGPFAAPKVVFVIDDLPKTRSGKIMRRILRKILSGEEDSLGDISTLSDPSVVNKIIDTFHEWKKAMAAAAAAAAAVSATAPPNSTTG

CnAcs1, sequence (J9VFT1 entry or part of it): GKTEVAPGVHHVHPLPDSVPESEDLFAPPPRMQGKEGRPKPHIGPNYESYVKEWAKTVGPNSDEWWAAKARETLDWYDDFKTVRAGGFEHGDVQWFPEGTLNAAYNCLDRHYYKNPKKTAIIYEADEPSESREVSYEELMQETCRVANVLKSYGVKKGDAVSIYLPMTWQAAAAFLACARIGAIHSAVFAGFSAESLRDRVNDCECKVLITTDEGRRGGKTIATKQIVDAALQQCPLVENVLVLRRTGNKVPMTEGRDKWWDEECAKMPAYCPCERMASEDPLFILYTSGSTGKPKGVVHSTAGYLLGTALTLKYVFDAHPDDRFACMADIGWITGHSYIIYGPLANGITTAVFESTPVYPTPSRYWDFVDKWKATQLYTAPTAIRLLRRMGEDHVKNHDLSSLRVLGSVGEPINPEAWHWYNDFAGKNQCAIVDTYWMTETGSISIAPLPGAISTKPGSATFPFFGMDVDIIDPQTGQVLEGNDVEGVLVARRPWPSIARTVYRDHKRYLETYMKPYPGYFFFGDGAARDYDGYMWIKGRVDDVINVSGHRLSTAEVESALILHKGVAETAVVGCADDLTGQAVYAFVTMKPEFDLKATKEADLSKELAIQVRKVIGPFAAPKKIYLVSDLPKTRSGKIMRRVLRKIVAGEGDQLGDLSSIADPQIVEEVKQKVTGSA

**Q.** How did the “utilization as substrate for CnAcs1” value ([1]; alternative acid substrates) turn out when `CC(=O)O` [acetate, reference compound] was run?
**A.** optimum substrate

**Q.** What about the “calculated binding energy ΔG” value ([1]; calculated for substrate binding) of the same compound?
**A.** -5.5 kcal/mol

**Q.** What about the Km ([1]; substrate Km, other substrates in excess (ATP 2.5 mM, CoA 1 mM, sodium acetate 0.5 mM), 37 °C, ±S.E.M.) of the same compound?
**A.** 130 ± 40 µM

**Q.** What about the Km [2] of the same compound?
**A.** 63 ± 13 µM

**Q.** What about the Km [3] of the same compound?
**A.** 27 ± 2 µM

**Q.** And the Km [4]?
**A.** 79 ± 7 µM

**Q.** What about the Km [5] of the same compound?
**A.** 18 ± 2 µM

**Q.** What about the Km [6] of the same compound?
**A.** 32 ± 5 µM
